Laboratory results from ChEMBL document CHEMBL1201862, “PubChem BioAssay data set” (2004).
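Dose response: 5 concentrations. Exposure: 48 h. Format: 96-well plates. Endpoint: linear interpolation; highest concentration if not reached. GI50 is the concentration that inhibits growth by half.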 Active and inactive are the calls of the source. No stated cut-off is given here; in the data, active = GI50 up to about 1.1 µM and inactive = higher.

Key:
Experiment in all cases: NCI-60 cell line screen, 48 h
A498 = tested on: A498
BT-549 = tested on: BT-549
CAKI-1 = tested on: CAKI-1
COLO 205 = tested on: COLO 205
HCT-15 = tested on: HCT-15
HL-60 = tested on: HL-60
HT-29 = tested on: HT-29
IGROV-1 = tested on: IGROV-1
MCF7 = tested on: MCF7
NCI-H522 = tested on: NCI-H522
OVCAR-5 = tested on: OVCAR-5
SF-295 = tested on: SF-295
SNB-75 = tested on: SNB-75
T47D = tested on: T47D
TK-10 = tested on: TK-10
UO-31 = tested on: UO-31
EKVX = tested on: EKVX
OVCAR-4 = tested on: OVCAR-4
HOP-92 = tested on: HOP-92

Measured: GI50

O=C(NCCNCCO)N/N=C/c1ccc(Cl)cc1
> 100 µM: HCT-15
inactive: A498 > 100 µM | BT-549 > 100 µM | CAKI-1 > 100 µM | COLO 205 > 100 µM | HL-60 > 100 µM | HT-29 > 100 µM | IGROV-1 > 100 µM | MCF7 > 100 µM | NCI-H522 > 100 µM | OVCAR-5 > 100 µM | SF-295 > 100 µM | SNB-75 36.1 µM | T47D > 100 µM | TK-10 > 100 µM | UO-31 > 100 µM

CSC(=O)c1sc(SC)[n+](-c2ccccc2)c1O
inactive: A498 30.1 µM | BT-549 15.1 µM | COLO 205 27.7 µM | EKVX > 10 µM | HL-60 > 10 µM | HT-29 20.2 µM | IGROV-1 19.2 µM | MCF7 25.4 µM | NCI-H522 10.4 µM | OVCAR-4 12.1 µM | OVCAR-5 18.7 µM | SF-295 14.9 µM | SNB-75 13.1 µM | T47D 7.35 µM | TK-10 18.2 µM | UO-31 17.3 µM
21 µM: HCT-15

CC1(C)C2CCC(=O)C1CC2 (centres undefined)
inactive: A498 > 100 µM | CAKI-1 > 100 µM | COLO 205 > 100 µM | HL-60 > 100 µM | HT-29 > 100 µM | IGROV-1 > 100 µM | MCF7 > 100 µM | NCI-H522 > 100 µM | OVCAR-5 > 100 µM | SF-295 > 100 µM | SNB-75 > 100 µM | T47D > 100 µM | TK-10 > 100 µM | UO-31 > 100 µM
> 100 µM: HCT-15

S=c1[nH]nc(Cn2c3ccc(Br)cc3c3nc4ccccc4nc32)o1
1.06 µM: HCT-15
inactive: A498 43.9 µM | BT-549 > 63.2 µM | CAKI-1 41.6 µM | COLO 205 46.9 µM | EKVX 71.6 µM | HT-29 35.6 µM | IGROV-1 31.9 µM | MCF7 39 µM | NCI-H522 20.2 µM | OVCAR-5 > 84.5 µM | SF-295 42.9 µM | SNB-75 86.1 µM | T47D 47.3 µM | TK-10 69.5 µM | UO-31 16.3 µM

Clc1sc(Cl)c2c1[C@@H](Cl)C[C@@H]2Br
inactive: BT-549 > 100 µM | CAKI-1 > 100 µM | COLO 205 > 100 µM | EKVX > 100 µM | HOP-92 37.4 µM | HT-29 > 100 µM | IGROV-1 72.9 µM | MCF7 43.8 µM | NCI-H522 30.8 µM | OVCAR-4 > 100 µM | OVCAR-5 > 100 µM | SF-295 > 100 µM | SNB-75 > 100 µM | T47D 44.7 µM | TK-10 > 100 µM | UO-31 > 100 µM
97.1 µM: HCT-15

CN(CCNC(=O)c1cn(C)c2c1ccc1ccccc12)CCNC(=O)c1cn(C)c2c1ccc1ccccc12
1.26 µM: HCT-15
inactive: A498 10.6 µM | BT-549 1.26 µM | CAKI-1 2.47 µM | EKVX 2.37 µM | HOP-92 2.07 µM | HT-29 6.05 µM | IGROV-1 1.62 µM | MCF7 1.51 µM | OVCAR-4 5.62 µM | OVCAR-5 1.69 µM | SF-295 3.05 µM | SNB-75 1.79 µM | TK-10 1.92 µM | UO-31 1.91 µM

COc1ccc(-c2c(/C=N/OCC(=O)O)c3sc4ccccc4n3c2/C=N/OCC(=O)O)cc1
inactive: BT-549 > 50 µM | CAKI-1 > 50 µM | COLO 205 > 50 µM | EKVX > 50 µM | HOP-92 21.8 µM | HT-29 > 50 µM | IGROV-1 > 50 µM | MCF7 > 50 µM | NCI-H522 > 50 µM | OVCAR-4 > 50 µM | OVCAR-5 > 50 µM | SF-295 > 50 µM | SNB-75 > 50 µM | T47D > 50 µM | TK-10 > 50 µM | UO-31 11.9 µM
> 50 µM: HCT-15

O=C(CC(C(=O)c1cccs1)c1ccsc1)c1ccc(Cl)s1 (centres undefined)
73.3 µM: HCT-15
inactive: A498 > 100 µM | CAKI-1 > 100 µM | COLO 205 > 100 µM | EKVX 50.7 µM | HL-60 75.2 µM | HT-29 75.9 µM | IGROV-1 > 100 µM | MCF7 97.1 µM | OVCAR-4 > 100 µM | OVCAR-5 31.4 µM | SNB-75 > 100 µM | T47D 44.3 µM | TK-10 > 100 µM | UO-31 36.6 µM

Oc1ccc(-c2cc(-c3c(O)cc(O)cc3O)on2)cc1
inactive: BT-549 54.5 µM | CAKI-1 94.6 µM | COLO 205 > 10 µM | EKVX 62.7 µM | HL-60 > 100 µM | HT-29 37 µM | IGROV-1 51.1 µM | MCF7 89.5 µM | NCI-H522 51.6 µM | OVCAR-4 > 100 µM | OVCAR-5 > 100 µM | SF-295 74.3 µM | SNB-75 74.5 µM | T47D 45.5 µM | TK-10 55.1 µM | UO-31 53 µM
56.8 µM: HCT-15

CSCCCNC(=O)c1csc([C@@H](CSC)NC(=O)CCNC(=O)[C@@H](NC(=O)OCC(Br)(Br)Br)C(C)O)n1 (some centres undefined)
> 100 µM: HCT-15
inactive: A498 > 100 µM | BT-549 > 100 µM | CAKI-1 > 100 µM | COLO 205 > 100 µM | EKVX 75.5 µM | HL-60 > 100 µM | HOP-92 > 100 µM | HT-29 > 100 µM | IGROV-1 > 100 µM | MCF7 94.2 µM | NCI-H522 > 100 µM | OVCAR-4 > 100 µM | OVCAR-5 > 100 µM | SF-295 > 100 µM | SNB-75 > 100 µM | TK-10 > 100 µM | UO-31 > 100 µM

COC(=O)C(Cc1nc2ccc(Cl)cc2nc1O)/C(=N/NC(N)=O)C(=O)Nc1ccc(Cl)cc1 (centres undefined)
> 100 µM: HCT-15
inactive: A498 > 100 µM | CAKI-1 > 100 µM | COLO 205 > 100 µM | EKVX 20.4 µM | HL-60 > 100 µM | HOP-92 > 100 µM | HT-29 > 100 µM | IGROV-1 > 100 µM | NCI-H522 > 100 µM | OVCAR-4 > 100 µM | OVCAR-5 > 100 µM | SF-295 > 100 µM | SNB-75 > 100 µM | TK-10 > 100 µM | UO-31 > 100 µM

O=C1Oc2ccccc2C(=O)/C1=C\Nc1nc(-c2ccccc2)cs1
inactive: A498 27.7 µM | CAKI-1 3.76 µM | COLO 205 2.6 µM | EKVX 19.5 µM | HL-60 1.45 µM | HOP-92 11.1 µM | HT-29 5.21 µM | IGROV-1 12.3 µM | MCF7 4.07 µM | NCI-H522 2.31 µM | OVCAR-4 58.7 µM | OVCAR-5 19 µM | SF-295 25.9 µM | SNB-75 5.86 µM | T47D 15.9 µM | TK-10 2.21 µM | UO-31 7.8 µM

Cc1c(C(=O)CC(=O)C(=O)Nc2ccccc2C(F)(F)F)[n+]([O-])c2ccccc2[n+]1[O-]
inactive: A498 > 100 µM | CAKI-1 26.7 µM | COLO 205 12.3 µM | EKVX 19.5 µM | HL-60 28.2 µM | HOP-92 16.2 µM | HT-29 18.5 µM | IGROV-1 18 µM | NCI-H522 16.4 µM | OVCAR-4 18.1 µM | OVCAR-5 26.8 µM | SF-295 31.6 µM | TK-10 46.8 µM | UO-31 35.1 µM
16.8 µM: HCT-15

c1ccc2c(c1)SCCCSCCSCCCS2
inactive: BT-549 > 100 µM | COLO 205 > 100 µM | EKVX 99.8 µM | HL-60 39.4 µM | HOP-92 48.9 µM | HT-29 > 100 µM | IGROV-1 > 100 µM | MCF7 > 100 µM | NCI-H522 > 100 µM | OVCAR-4 93.5 µM | OVCAR-5 > 100 µM | SF-295 > 100 µM | SNB-75 > 100 µM | T47D > 100 µM | TK-10 > 100 µM | UO-31 60.5 µM
> 100 µM: HCT-15

CNC(=S)N/N=C(\C)c1ccc(OC)cc1O
16 µM: HCT-15
inactive: A498 95.7 µM | BT-549 > 100 µM | CAKI-1 > 100 µM | EKVX 82.6 µM | HOP-92 > 100 µM | IGROV-1 22.5 µM | NCI-H522 2.72 µM | OVCAR-4 28.1 µM | OVCAR-5 > 100 µM | SF-295 > 100 µM | SNB-75 > 100 µM | T47D > 100 µM | UO-31 > 100 µM
active: COLO 205 0.258 µM | HL-60 0.841 µM | HT-29 0.337 µM

CN1CC[C@]2(c3cccc(O)c3)CC(=O)/C(=C/c3ccc(Cl)c(Cl)c3)[C@@H]1C2
active: CAKI-1 1.08 µM | HL-60 0.199 µM | HT-29 1.01 µM | SNB-75 0.455 µM
inactive: A498 1.63 µM | BT-549 1.75 µM | COLO 205 1.6 µM | EKVX 1.55 µM | HOP-92 1.22 µM | IGROV-1 1.88 µM | MCF7 1.29 µM | OVCAR-4 1.47 µM | OVCAR-5 1.77 µM | SF-295 1.52 µM | TK-10 1.86 µM | UO-31 1.32 µM
1.16 µM: HCT-15

CC(=O)C(C)C(=O)N1C(=O)N(C)C2(C)N(C)C(=O)NC12C (centres undefined)
inactive: BT-549 > 100 µM | CAKI-1 > 100 µM | COLO 205 > 100 µM | EKVX > 100 µM | HL-60 > 100 µM | HOP-92 > 100 µM | HT-29 > 100 µM | IGROV-1 > 100 µM | MCF7 > 100 µM | NCI-H522 > 100 µM | OVCAR-4 > 100 µM | OVCAR-5 > 100 µM | SF-295 > 100 µM | SNB-75 > 100 µM | TK-10 > 100 µM | UO-31 > 100 µM
> 100 µM: HCT-15
